# Experimental data from ChEMBL document CHEMBL1201862, “PubChem BioAssay data set” (2004).
# Values joined by “and” are separate entries in the source; they are usually repeats but may differ in a detail not shown here. Identical values can stand only once.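 Cultured in 96-well plates, cells were exposed to test compound for 48 hours across five concentrations. Abbreviation: GI50, concentration required for 50% inhibition of growth.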 Active and inactive are the calls of the source. No stated cut-off is given here; in the data, active = GI50 up to about 1.1 µM and inactive = higher.
# Columns and labels:
# Assay in all cases: growth of human tumour cells (NCI), 48 h
# Malme-3M = tested on: Malme-3M
# HOP-62 = tested on: HOP-62
# MDA-MB-231 = tested on: MDA-MB-231
# SF-268 = tested on: SF-268
# HCT-116 = tested on: HCT-116
# MCF7 = tested on: MCF7
# NCI-H522 = tested on: NCI-H522
# HCT-15 = tested on: HCT-15
# Hs-578T = tested on: Hs-578T
# SN12C = tested on: SN12C
# MDA-N = tested on: MDA-N
# M14 = tested on: M14
# SNB-19 = tested on: SNB-19
# NCI-H226 = tested on: NCI-H226
# SK-OV-3 = tested on: SK-OV-3
# SK-MEL-5 = tested on: SK-MEL-5
# HT-29 = tested on: HT-29
# IGROV-1 = tested on: IGROV-1
# KM12 = tested on: KM12
# SNB-75 = tested on: SNB-75
# OVCAR-3 = tested on: OVCAR-3
# OVCAR-8 = tested on: OVCAR-8
# UACC-62 = tested on: UACC-62
# COLO 205 = tested on: COLO 205
# CCRF-CEM = tested on: CCRF-CEM
# U-251 = tested on: U-251
# A498 = tested on: A498
# T47D = tested on: T47D
# NCI/ADR-RES = tested on: NCI/ADR-RES
# MOLT-4 = tested on: MOLT-4
# SW-620 = tested on: SW-620
# BT-549 = tested on: BT-549
# K562 = tested on: K562
# SK-MEL-2 = tested on: SK-MEL-2
# NCI-H23 = tested on: NCI-H23
# SR = tested on: SR
# TK-10 = tested on: TK-10
# EKVX = tested on: EKVX
# OVCAR-4 = tested on: OVCAR-4
# NCI-H460 = tested on: NCI-H460
# ACHN = tested on: ACHN
# OVCAR-5 = tested on: OVCAR-5
# DU-145 = tested on: DU-145
# HCC 2998 = tested on: HCC 2998
# PC-3 = tested on: PC-3
# SF-295 = tested on: SF-295
# HL-60 = tested on: HL-60
# SK-MEL-28 = tested on: SK-MEL-28
# CAKI-1 = tested on: CAKI-1
# UO-31 = tested on: UO-31
# UACC-257 = tested on: UACC-257
# 786-0 = tested on: 786-0
# RPMI-8226 = tested on: RPMI-8226
# A549 = tested on: A549
# HOP-92 = tested on: HOP-92
# LOX IMVI = tested on: LOX IMVI
# SF-539 = tested on: SF-539
# MDA-MB-435 = tested on: MDA-MB-435
# RXF 393 = tested on: RXF 393
structure (smiles),measurement,setting,value
CCOC(=O)/C(Cl)=C(\C)Nc1nc2c(ccc3ccccc32)s1,GI50,Malme-3M,15.6 µM (inactive)
same,GI50,HOP-62,37.9 µM (inactive)
same,GI50,MDA-MB-231,60.5 µM (inactive)
same,GI50,SF-268,90.2 µM (inactive)
same,GI50,HCT-116,25.5 µM (inactive)
same,GI50,MCF7,24.5 µM (inactive)
same,GI50,NCI-H522,9.35 µM (inactive)
same,GI50,HCT-15,26.1 µM
same,GI50,Hs-578T,35 µM (inactive)
same,GI50,SN12C,47.6 µM (inactive)
same,GI50,MDA-N,26.3 µM (inactive)
same,GI50,M14,33.2 µM (inactive)
same,GI50,SNB-19,> 100 µM (inactive)
same,GI50,NCI-H226,24.5 µM (inactive)
same,GI50,SK-OV-3,> 100 µM (inactive)
same,GI50,SK-MEL-5,31.2 µM (inactive)
same,GI50,HT-29,45.3 µM (inactive)
same,GI50,IGROV-1,> 100 µM (inactive)
same,GI50,KM12,30.6 µM (inactive)
same,GI50,SNB-75,14.6 µM (inactive)
same,GI50,OVCAR-3,46.8 µM (inactive)
same,GI50,OVCAR-8,60.3 µM (inactive)
same,GI50,UACC-62,41.9 µM (inactive)
same,GI50,COLO 205,47.9 µM (inactive)
same,GI50,CCRF-CEM,7.87 µM (inactive)
same,GI50,U-251,> 100 µM (inactive)
same,GI50,A498,> 100 µM (inactive)
same,GI50,T47D,13.6 µM (inactive)
same,GI50,NCI/ADR-RES,> 100 µM (inactive)
same,GI50,MOLT-4,7.28 µM (inactive)
same,GI50,SW-620,36.4 µM (inactive)
same,GI50,BT-549,61.7 µM (inactive)
same,GI50,K562,17.5 µM (inactive)
same,GI50,SK-MEL-2,26.6 µM (inactive)
same,GI50,NCI-H23,31.3 µM (inactive)
same,GI50,SR,19.5 µM (inactive)
same,GI50,TK-10,> 100 µM (inactive)
same,GI50,EKVX,32.6 µM (inactive)
same,GI50,OVCAR-4,87.7 µM (inactive)
same,GI50,NCI-H460,22.5 µM (inactive)
same,GI50,ACHN,> 100 µM (inactive)
same,GI50,OVCAR-5,81.1 µM (inactive)
same,GI50,DU-145,20.6 µM (inactive)
same,GI50,HCC 2998,16.4 µM (inactive)
same,GI50,PC-3,22.5 µM (inactive)
same,GI50,SF-295,> 100 µM (inactive)
same,GI50,HL-60,38.1 µM (inactive)
same,GI50,SK-MEL-28,> 100 µM (inactive)
same,GI50,CAKI-1,87.9 µM (inactive)
same,GI50,UO-31,> 100 µM (inactive)
same,GI50,UACC-257,91.8 µM (inactive)
CC(C)(C)N/N=C(\C(=O)NC1=C(Cl)C(=O)c2ccccc2C1=O)C1C=CCS1(=O)=O (stereo not drawn),GI50,Malme-3M,2.27 µM (inactive)
same,GI50,MDA-MB-231,14.6 µM (inactive)
same,GI50,SF-268,21.9 µM (inactive)
same,GI50,786-0,22.4 µM (inactive)
same,GI50,HCT-116,15.5 µM (inactive)
same,GI50,RPMI-8226,> 100 µM (inactive)
same,GI50,MCF7,13.1 µM (inactive)
same,GI50,NCI-H522,12.5 µM (inactive)
same,GI50,HCT-15,7.06 µM
same,GI50,Hs-578T,19.5 µM (inactive)
same,GI50,SN12C,15.1 µM (inactive)
same,GI50,MDA-N,2.44 µM (inactive)
same,GI50,M14,11.5 µM (inactive)
same,GI50,SNB-19,> 100 µM (inactive)
same,GI50,NCI-H226,12.6 µM (inactive)
same,GI50,SK-OV-3,> 100 µM (inactive)
same,GI50,HT-29,14.4 µM (inactive)
same,GI50,IGROV-1,10 µM (inactive)
same,GI50,KM12,16 µM (inactive)
same,GI50,SNB-75,11.1 µM (inactive)
same,GI50,OVCAR-3,2.65 µM (inactive)
same,GI50,OVCAR-8,19.8 µM (inactive)
same,GI50,UACC-62,3.3 µM (inactive)
same,GI50,COLO 205,16.6 µM (inactive)
same,GI50,CCRF-CEM,> 100 µM (inactive)
same,GI50,U-251,> 100 µM (inactive)
same,GI50,A498,21.2 µM (inactive)
same,GI50,T47D,19.5 µM (inactive)
same,GI50,NCI/ADR-RES,22 µM (inactive)
same,GI50,MOLT-4,66.7 µM (inactive)
same,GI50,SW-620,> 100 µM (inactive)
same,GI50,BT-549,12.4 µM (inactive)
same,GI50,K562,> 100 µM (inactive)
same,GI50,SK-MEL-2,11.2 µM (inactive)
same,GI50,NCI-H23,8.15 µM (inactive)
same,GI50,A549,16.9 µM (inactive)
same,GI50,TK-10,38.9 µM (inactive)
same,GI50,EKVX,16.5 µM (inactive)
same,GI50,OVCAR-4,16.4 µM (inactive)
same,GI50,HOP-92,14.1 µM (inactive)
same,GI50,NCI-H460,6.84 µM (inactive)
same,GI50,ACHN,16.1 µM (inactive)
same,GI50,OVCAR-5,21.2 µM (inactive)
same,GI50,DU-145,11.1 µM (inactive)
same,GI50,HCC 2998,36.1 µM (inactive)
same,GI50,LOX IMVI,7.98 µM (inactive)
same,GI50,PC-3,18.1 µM (inactive)
same,GI50,SF-295,12.6 µM (inactive)
same,GI50,HL-60,> 100 µM (inactive)
same,GI50,SK-MEL-28,> 100 µM (inactive)
same,GI50,CAKI-1,18.4 µM (inactive)
same,GI50,SF-539,23.1 µM (inactive)
same,GI50,UO-31,16.8 µM (inactive)
same,GI50,UACC-257,13.6 µM (inactive)
C=CCN1C(=O)/C(=C/c2ccc(Cl)cc2)N=C1SC1OC(COC(C)=O)C(OC(C)=O)C(OC(C)=O)C1OC(C)=O (stereo not drawn),GI50,SF-268,1.64 µM (inactive)
same,GI50,786-0,3.5 µM (inactive)
same,GI50,HCT-116,5.02 µM (inactive)
same,GI50,MCF7,12.7 µM (inactive) and 7.41 µM (inactive)
same,GI50,NCI-H522,2.98 µM (inactive) and 3.81 µM (inactive)
same,GI50,Hs-578T,2.54 µM (inactive)
same,GI50,SN12C,16.5 µM (inactive)
same,GI50,MDA-N,25.8 µM (inactive)
same,GI50,M14,28.1 µM (inactive)
same,GI50,SNB-19,15.8 µM (inactive)
same,GI50,SK-OV-3,> 39.8 µM (inactive) and 27.1 µM (inactive)
same,GI50,SK-MEL-5,26.6 µM (inactive) and 15.8 µM (inactive)
same,GI50,HT-29,35.6 µM (inactive)
same,GI50,IGROV-1,22.4 µM (inactive) and 33 µM (inactive)
same,GI50,KM12,30.2 µM (inactive) and 22.8 µM (inactive)
same,GI50,OVCAR-3,11.6 µM (inactive) and 18.5 µM (inactive)
same,GI50,OVCAR-8,15.7 µM (inactive) and 8.43 µM (inactive)
same,GI50,CCRF-CEM,37.2 µM (inactive)
same,GI50,T47D,8.51 µM (inactive)
same,GI50,BT-549,31.3 µM (inactive) and 15.7 µM (inactive)
same,GI50,NCI-H23,20 µM (inactive) and 25.1 µM (inactive)
same,GI50,A549,14.4 µM (inactive)
same,GI50,TK-10,46.2 µM (inactive) and > 42.6 µM (inactive)
same,GI50,EKVX,24.3 µM (inactive) and 33.4 µM (inactive)
same,GI50,MDA-MB-435,14 µM (inactive) and 13.8 µM (inactive)
same,GI50,DU-145,24 µM (inactive) and 14.6 µM (inactive)
same,GI50,LOX IMVI,22.9 µM (inactive) and 29.9 µM (inactive)
same,GI50,SK-MEL-28,39.4 µM (inactive) and 56.9 µM (inactive)
same,GI50,CAKI-1,10.9 µM (inactive) and 9.93 µM (inactive)
same,GI50,SF-539,33 µM (inactive) and 25.3 µM (inactive)
same,GI50,UACC-257,18.9 µM (inactive) and 12.2 µM (inactive)
COc1cc(C2S/C(=C/c3ccccc3)C(=O)N2c2ccccc2Cl)cc(OC)c1OC (stereo not drawn),GI50,Malme-3M,29.8 µM (inactive)
same,GI50,HOP-62,31.3 µM (inactive)
same,GI50,MDA-MB-231,23.4 µM (inactive)
same,GI50,SF-268,30.3 µM (inactive)
same,GI50,HCT-116,19 µM (inactive)
same,GI50,MCF7,18.6 µM (inactive)
same,GI50,NCI-H522,12.4 µM (inactive)
same,GI50,HCT-15,27.5 µM
same,GI50,Hs-578T,16.5 µM (inactive)
same,GI50,SN12C,21.4 µM (inactive)
same,GI50,MDA-N,15.7 µM (inactive)
same,GI50,M14,20.2 µM (inactive)
same,GI50,SNB-19,35.5 µM (inactive)
same,GI50,NCI-H226,> 100 µM (inactive)
same,GI50,SK-OV-3,29.6 µM (inactive)
same,GI50,RXF 393,9.53 µM (inactive)
same,GI50,SK-MEL-5,20.7 µM (inactive)
same,GI50,HT-29,19.1 µM (inactive)
same,GI50,KM12,22 µM (inactive)
same,GI50,SNB-75,6.21 µM (inactive)
same,GI50,OVCAR-8,19.3 µM (inactive)
same,GI50,UACC-62,20 µM (inactive)
same,GI50,COLO 205,33.3 µM (inactive)
same,GI50,U-251,22.1 µM (inactive)
same,GI50,A498,43.4 µM (inactive)
same,GI50,T47D,5.26 µM (inactive)
same,GI50,NCI/ADR-RES,25.6 µM (inactive)
same,GI50,MOLT-4,41.8 µM (inactive)
same,GI50,BT-549,29.3 µM (inactive)
same,GI50,SK-MEL-2,16 µM (inactive)
same,GI50,NCI-H23,24.3 µM (inactive)
same,GI50,A549,37.1 µM (inactive)
same,GI50,TK-10,76.2 µM (inactive)
same,GI50,EKVX,13.6 µM (inactive)
same,GI50,OVCAR-4,28.2 µM (inactive)
same,GI50,HOP-92,14.3 µM (inactive)
same,GI50,ACHN,44.4 µM (inactive)
same,GI50,OVCAR-5,42.5 µM (inactive)
same,GI50,MDA-MB-435,15.6 µM (inactive)
same,GI50,HCC 2998,33 µM (inactive)
same,GI50,LOX IMVI,18.7 µM (inactive)
same,GI50,PC-3,21.8 µM (inactive)
same,GI50,SF-295,28.9 µM (inactive)
same,GI50,SK-MEL-28,42.2 µM (inactive)
same,GI50,CAKI-1,32.6 µM (inactive)
same,GI50,UO-31,28.5 µM (inactive)
same,GI50,UACC-257,45.5 µM (inactive)
